Test results from publication PMC12321279, “Novel 4,5‐Dihydrothiazole‐Phenylpiperazine Derivatives: Synthesis, Docking Studies and Pharmacological Evaluation as Serotonergic Agents” (Chemmedchem, 2025).
Where “and” joins values, the source holds several entries; their conditions need not be identical. Identical values can stand only once. Like-named read-outs stand apart in the source and are kept apart here.

What was measured:
5‐HT2A receptor [1] = target: T1, 5‐HT2A receptor (Rattus norvegicus, UniProt P14842); experiment: Inhibition of 5‐HT‐evoked contractions in isolated rat ileum; set-up: segments (1–1.5 cm) of ileum were removed, flushed of luminal contents, and placed in Krebs solution; from tissue; host or cells: isolated rat (Sprague-Dawley) ileum segments; settings: 5‐HT 10^−5 M, compounds 10^−8–10^−5 M
Method: Male rats (Sprague‐Dawley, 160–200 g; Charles River Laboratories; Calco, Italy) were manipulated and cared for in strict compliance with the principles of laboratory animal care. Experimental procedures were conducted in conformity with Italian (D.L. 26/2014) and European (directive 2010/63/EU) regulations on the protection of animals used for scientific purposes and approved by the Italian Ministry. Animal housing complied with recent pharmacological guidance.^[ [40] ^] All animals weighing 160–200 g were used after a 1‐week acclimation period (temperature 23 ± 2 °C; humidity 60%, free access to water and standard food).
The segments were prepared as previously described:^[ [41] ^] the segments were set up in such a way as to record contractions mainly from the longitudinal axis, in an organ bath containing 20 mL of Krebs solution, bubbled with 95% O2 and 5% CO2 and maintained at 37 °C. The tissues were connected to an isotonic transducer (load: 0.5 g), connected to Power Lab system (Ugo Basile, Comerio, Italy). Ileal segments were equilibrated for 60 min^[ [16] ^] followed by three repeated additions of submaximal concentration of 5‐HT (10^−5 M) in order to record stable control contractions. […] The contact time for each concentration was 10 min. The compounds were dissolved in DMSO. […] Results are expressed as mean (SEM). […] The IC50 and Emax values were calculated with the aid of a computer program (GraphPad Prism 5).

5‐HT1A receptor [2] = target: T2, 5‐HT1A receptor (Rattus norvegicus, UniProt P19327); experiment: 5‐HT1A receptor activation in the [35S]GTP‐γ‐S assay (hippocampal membranes); type: biochemical; settings: [35S]GTPγS; for Emax (%) ± SEM, 5‐HT1A receptor G‐protein stimulation / EC50 / pEC50, 5‐HT1A receptor G‐protein stimulation / EC50 (95% CI, μM), 5‐HT1A receptor G‐protein stimulation / Emax: rat hippocampal membranes; for agonist activity for the 5‐HT1A receptor (classification in words): efficacy compared with 8‐OH‐DPAT; for Emax: read-out: Emax (%) ± SEM, 5‐HT1A receptor G‐protein stimulation
T2 construct: 80 μg of hippocampal membrane suspension (the 5‐HT1A assay); from tissue; host or cells: rat (Sprague-Dawley) hippocampus membranes
T2 sequence (P19327 1-422): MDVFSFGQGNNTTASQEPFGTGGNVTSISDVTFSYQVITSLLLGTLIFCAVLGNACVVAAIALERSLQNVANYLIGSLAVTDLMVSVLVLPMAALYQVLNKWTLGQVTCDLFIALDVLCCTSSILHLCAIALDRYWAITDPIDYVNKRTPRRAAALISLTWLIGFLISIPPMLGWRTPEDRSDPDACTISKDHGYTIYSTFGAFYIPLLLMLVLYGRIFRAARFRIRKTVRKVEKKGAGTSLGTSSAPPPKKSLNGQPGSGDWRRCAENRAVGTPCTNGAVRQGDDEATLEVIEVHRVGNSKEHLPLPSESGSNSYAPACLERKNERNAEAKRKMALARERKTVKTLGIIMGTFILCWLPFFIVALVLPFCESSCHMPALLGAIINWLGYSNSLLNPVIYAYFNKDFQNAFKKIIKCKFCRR
Method: Seven compound concentrations equally spaced on a log scale (10–4 M to 10–10 M) were incubated in duplicate with hippocampal membrane preparations (5μg per well) in assay buffer (50 mM Tris‐HCl, pH = 7.4, 1 mM EGTA, 3 mM MgCl2, 100 mM NaCl, and 30 μM GDP) and 0.08 nM [^35S]GTP‐γ‐S (specific activity: 1250 Ci mmole^−1, Revvity). Nonspecific binding was determined with 10μM of unlabeled GTP‐γ‐S. The final DMSO concentration in the assay was 5%. The reaction mixture was incubated for 90 min. at 30 °C on an orbital shaker set at 250 rpm. Next, the reaction mixture was deposited under vacuum with the FilterMate Harvester (Revvity, USA) onto Unifilter GF/C Plates (Revvity, MA, USA) presoaked with wash buffer (50 mM Tris‐HCl, pH = 7.4). The wells were then rapidly washed with 2 mL of wash buffer. Filter plates were dried overnight at room temperature. Once completely dry, 35 μl of MicroScint PS (Revvity, MA, USA) scintillation fluid was added to each well. Radioactivity was counted in a MicroBeta2 LumiJet scintillation counter (Revvity, MA, USA). Data were analyzed with GraphPad Prism 5.0 software (GraphPad Software, San Diego California USA, www.graphpad.com). The curves were fitted with three‐parameter non‐linear regression model.

5‐HT2C receptor = target: T3, 5‐HT2C receptor (Rattus norvegicus, UniProt P08909); experiment: 5‐HT2C competition binding assay ([3H]mesulergine, frontal cortex membranes); settings: 5 nM [3H]mesulergine
T3 construct: 10 μM pargyline and 160μg of the frontal cortex membrane suspension; from tissue; host or cells: rat (Sprague-Dawley) frontal cortex membranes
T3 sequence (P08909 33-460): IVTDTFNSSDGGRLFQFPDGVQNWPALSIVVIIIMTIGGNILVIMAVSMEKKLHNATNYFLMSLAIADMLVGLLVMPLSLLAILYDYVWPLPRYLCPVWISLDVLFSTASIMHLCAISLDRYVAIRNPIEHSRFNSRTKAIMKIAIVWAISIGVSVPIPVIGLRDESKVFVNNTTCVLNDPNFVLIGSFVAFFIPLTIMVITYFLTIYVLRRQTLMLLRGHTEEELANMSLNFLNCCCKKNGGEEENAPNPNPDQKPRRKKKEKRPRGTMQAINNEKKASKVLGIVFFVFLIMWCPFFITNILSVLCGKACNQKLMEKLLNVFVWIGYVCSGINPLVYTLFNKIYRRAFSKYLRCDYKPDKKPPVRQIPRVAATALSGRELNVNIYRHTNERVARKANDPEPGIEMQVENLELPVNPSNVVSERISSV
Method: (§1) Sprague‐Dawley rats were sacrificed by isoflurane overdose. Brains were rapidly removed and placed on ice. Hippocampi (for the 5‐HT1A assay) and frontal cortices (for the 5‐HT2A and 5‐HT2C assays) were dissected on a Petri dish. The tissue from 10 rats was homogenized in 30 vol. homogenization buffer (50 mM Tris–HCl, […], 1 mM EDTA, 1 mM dithiothreitol) with a handheld Teflon‐glass homogenizer. The homogenate was centrifuged at 48,000 × g at 4 °C for 15 min. The pellet was suspended and homogenized in the homogenization buffer and incubated for 10 min. at 36 °C. The centrifugation and suspension steps were repeated twice. The final pellet was homogenized in 5 vol. 50 mM Tris–HCl, pH = 7.4 buffer and stored at −80 °C for no longer than 6 months. […] For the 5‐HT2C assay, compounds were incubated in duplicate with 5 nM [^3H]mesulergine (specific activity: 80.2 Ci mmol^−1, Revvity, MA, USA) for 60 min. at 36 °C in a 50 mM Tris‐HCl (pH 7.4) buffer, supplemented with 5 mM MgCl2, 140 mM NaCl, 1 mM DTT, 1 mM CaCl2, 10 μM pargyline and 160μg of the frontal cortex membrane suspension. Non‐specific binding was determined with 10μM serotonin. The final DMSO concentration in the assay was 5%. After incubation, the reaction mixture was deposited onto Unifilter GF/C plates (Revvity, MA, USA) presoaked in 0.4% PEI (or 0.4% PEI and 0.5% Triton X‐100 for the 5‐HT2C assay) for 1 h with the FilterMate‐96 Harvester (Revvity, MA, USA). Then, each well was washed with 2 mL of 50 mM Tris–HCl (pH 7.4) buffer to separate bound ligands from free and the plates were left to dry overnight. Then, 35μl of Microscint‐20 scintillation fluid (Revvity, MA, USA) was added to each filter well and left to equilibrate for 2h. Filter‐bound radioactivity was counted in a MicroBeta2 LumiJet scintillation counter (Revvity, MA, USA). Binding curves were fitted with one site non‐linear regression. Binding affinity (pKi and Ki) for each compound was calculated from the […] values with the Cheng‐Prusoff equation from two separate experiments.

5‐HT1A receptor [3] = target: T2, 5‐HT1A receptor; experiment: 5‐HT1A competition binding assay ([3H]8‐OH‐DPAT, hippocampal membranes); settings: 1 nM [3H]8‐OH‐DPAT
Method: as §1

5‐HT2A receptor [4] = target: T1, 5‐HT2A receptor; experiment: 5‐HT2A competition binding assay ([3H]ketanserin, frontal cortex membranes); set-up: from tissue; host or cells: rat (Sprague-Dawley) frontal cortex membranes; settings: 1 nM [3H]ketanserin
[5] = 95% CI in brackets, read-out: EC50 (95% CI, μM), 5‐HT1A receptor G‐protein stimulation
[6] = 95% CI in brackets, read-out: 5‐HT2C Ki (95% CI)
[7] = 95% CI in brackets, read-out: 5‐HT1A Ki (95% CI)
[8] = 95% CI in brackets, read-out: 5‐HT2A Ki (95% CI)
[9] = read-out: 5‐HT1A pKi (converted)
[10] = read-out: 5‐HT2C pKi (converted)

T1 sequence (P14842 whole entry): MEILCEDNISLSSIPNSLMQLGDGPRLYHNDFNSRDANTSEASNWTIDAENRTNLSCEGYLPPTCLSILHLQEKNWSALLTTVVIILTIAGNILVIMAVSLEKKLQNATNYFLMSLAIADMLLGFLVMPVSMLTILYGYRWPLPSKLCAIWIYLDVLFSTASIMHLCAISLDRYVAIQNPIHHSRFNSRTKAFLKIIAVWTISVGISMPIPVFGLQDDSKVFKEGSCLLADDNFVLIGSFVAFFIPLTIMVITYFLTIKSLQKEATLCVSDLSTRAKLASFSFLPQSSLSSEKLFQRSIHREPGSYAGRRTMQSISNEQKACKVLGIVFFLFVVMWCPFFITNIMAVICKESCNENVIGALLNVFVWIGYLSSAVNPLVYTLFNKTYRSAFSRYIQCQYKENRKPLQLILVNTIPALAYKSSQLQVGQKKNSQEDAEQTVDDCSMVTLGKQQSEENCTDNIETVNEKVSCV

| Structure (SMILES) | Emax (%) ± SEM, 5‐HT1A receptor G‐protein stimulation (5‐HT1A receptor [2]) | EC50 (5‐HT1A receptor [2]; [5]) | Ki (5‐HT2C receptor; [6]) | Ki (5‐HT1A receptor [3]; [7]) | Ki (5‐HT2A receptor [4]; [8]) | Ki (5‐HT1A receptor [3]; [9]) | Emax (5‐HT1A receptor [2]) | Ki (5‐HT2C receptor; [10]) | further results |
| --- | --- | --- | --- | --- | --- | --- | --- | --- | --- |
| O=C(NCCCN1CCN(c2ccccc2C2=NCCS2)CC1)C1CC2C=CC1C2 (stereo not drawn) [FG‐16, Endo‐N‐(3‐(4‐(2‐(4,5‐dihydrothiazol‐2‐yl)phenyl)piperazin‐1‐yl)propyl) bicyclo[2.2.1] hept‐5‐ene‐2‐carboxamide] | 127 ± 3.2% | 41 µM | 4.83 µM | 0.025 µM and 0.0251 µM | 1.37 µM |  |  |  | Emax (5‐HT2A receptor [1]; read-out: EMAX, maximal inhibitory effect on 5‐HT‐induced contractions in the rat ileum): 39.1%; IC50 (5‐HT2A receptor [1]; IC50, inhibition of 5‐HT‐induced contractions in the rat ileum, contact time 10 min): 6.35 µM |
| O=C(NCCCN1CCN(c2ccc(C3=NCCS3)cc2)CC1)c1ccccn1 [FG‐3, N‐(3‐(4‐(4‐(4,5‐dihydrothiazol‐2‐yl) phenyl) piperazin‐1‐yl) propyl) picolinamide] | No activity |  | 1.46 µM | 4.5 µM | 6.3 µM | 4.57 µM |  |  | pEC50, 5‐HT1A receptor G‐protein stimulation (5‐HT1A receptor [2]): No activity; EC50 (95% CI, μM), 5‐HT1A receptor G‐protein stimulation (5‐HT1A receptor [2]; 95% CI in brackets): No activity; agonist activity for the 5‐HT1A receptor (classification in words) (5‐HT1A receptor [2]): do not express any agonist activity |
| O=C(NCCCN1CCN(c2ccc(C3=NCCS3)cc2)CC1)C1CC2C=CC1C2 (stereo not drawn) [FG‐15, Exo‐N‐(3‐(4‐(4‐(4,5‐dihydrothiazol‐2‐yl)phenyl)piperazin‐1‐yl)propyl) bicyclo [2.2.1] hept‐5‐ene‐2‐carboxamide] |  | 88.1 µM | 2.36 µM |  |  | 17.8 µM | 137 ± 4.7% | 2.4 µM | EC50 (5‐HT1A receptor [2]; read-out: pEC50, 5‐HT1A receptor G‐protein stimulation (converted)): 89.1 µM; Ki (5‐HT2A receptor [4]; read-out: 5‐HT2A pKi (converted)): 4.47 µM |
| O=C1C2C3C=CC(O3)C2C(=O)N1OCCCN1CCN(c2ccccc2C2=NCCS2)CC1 (centres unmarked) [FG‐10, 2‐(3‐(4‐(2‐(4,5‐dihydrothiazol‐2‐yl) phenyl) piperazin‐1‐yl) propoxy)‐3a,4,7,7a‐tetrahydro‐1H‐4,7‐epoxyisoindole‐1,3(2H)‐dione] |  | 52 µM |  | 0.61 µM | 3.84 µM |  | 120 ± 14.9% | 3.24 µM |  |
| CCCN(CCC)C1CCc2cccc(O)c2C1 (centres unmarked) [8‐OH‐DPAT, 8‐hydroxy‐dipropylaminotetraline, reference compound] |  |  |  |  |  |  | 177 ± 1.2% |  |  |
| O=C(NCCCN1CCN(c2ccccc2C2=NCCS2)CC1)C1CC2C=CC1C2 (stereo not drawn) [FG‐13, Exo‐N‐(3‐(4‐(2‐(4,5‐dihydrothiazol‐2‐yl)phenyl)piperazin‐1‐yl)propyl) bicyclo [2.2.1] hept‐5‐ene‐2‐carboxamide] |  | 79.6 µM |  | 0.22 µM | 3.54 µM |  | 132 ± 8.4% | 0.794 µM |  |
| O=C1C2C3C=CC(O3)C2C(=O)N1OCCCN1CCN(c2ccc(C3=NCCS3)cc2)CC1 (centres unmarked) [FG‐12, 2‐(3‐(4‐(4‐(4,5‐dihydrothiazol‐2‐yl) phenyl) piperazin‐1‐yl) propoxy)‐3a,4,7,7a‐tetrahydro‐1H‐4,7‐epoxyisoindole‐1,3(2H)‐dione] |  | 46.2 µM | 0.286 µM |  | 6.93 µM | 63.1 µM | 135 ± 18.2% |  |  |
| COc1cc(OC)c(C(=O)CCCCN2CCC3(CC2)NC(=O)NC3=O)cc1NS(=O)(=O)c1ccc(C(F)(F)F)cc1 [RS‐102 221, reference compound] |  |  | 0.0057 µM |  |  |  |  |  | 5‐HT2C pKi (5‐HT2C receptor): 8.24 ± 0.23 |
| O=C1C2C3C=CC(C3)C2C(=O)N1OCCCN1CCN(c2ccc(C3=NCCS3)cc2)CC1 (centres unmarked) [FG‐9, 2‐(3‐(4‐(4‐(4,5‐dihydrothiazol‐2‐yl) phenyl) piperazin‐1‐yl) propoxy)‐3a,4,7,7a‐tetrahydro‐1H‐4,7‐methanoisoindole‐1,3(2H)‐dione] | No activity |  | 2.03 µM |  | 14.1 µM | 72.4 µM |  |  | pEC50, 5‐HT1A receptor G‐protein stimulation (5‐HT1A receptor [2]): No activity; EC50 (95% CI, μM), 5‐HT1A receptor G‐protein stimulation (5‐HT1A receptor [2]; 95% CI in brackets): No activity; agonist activity for the 5‐HT1A receptor (classification in words) (5‐HT1A receptor [2]): do not express any agonist activity |
